Our source for the IC50 values is patent publication US4933346A, “Diarylalkyl piperazine derivatives, a process for their preparation, their use, and medicaments containing them” (Hoechst Aktiengesellschaft, priority 1987, dated 1990).

This test addresses ^3 H-nitrendipine binding, membrane preparation obtained from the cortex of the rat brain. Kind of test: displacement of tritium-labeled nitrendipine in a membrane preparation from the cortex of the rat brain. The note with it: ^3 H-nitrendipine 0.1 nM, 25° C., 60 min, pH 7.4; unspecific binding with 1 μM nifedipine. On the procedure: We carried out this test in a membrane preparation obtained from the cortex of the rat brain and washed several times, the method which we used being essentially that of R. J. Gould et al. (Proc. Natl. Acad. Sci. USA 79, 3656 [1982]). […] The membrane fractions were removed by vacuum filtration through Whatman GF/F fiber glass filters, and the radioactivity was measured in a liquid scintillation counter. We determined the unspecific ^3 H-nitrendipine binding in the presence of 1 μM nifedipine. The IC50 is determined as characteristic quantity, i.e. the concentration of test substance which is able to displace 50% of the radiolabeled nitrendipine.

Counter-ions that a name gives are not always drawn.

`Fc1ccc(C(CCCN2CCN(CCSc3ccc(Cl)cc3)CC2)c2ccc(F)cc2)cc1` [Example 1, 1-[4,4-bis(4-fluorophenyl)butyl]-4-[2-(4-chlorophenylthio)ethyl]piperazine] returned a 50% inhibitory concentration (IC50) of 4 nM.
Compound `Cc1ccc(SCCN2CCN(CCCC(c3ccc(F)cc3)c3ccc(F)cc3)CC2)cc1` [Example 2, 1-[4,4-bis(4-fluorophenyl)butyl]-4-[2-(4-methylphenylthio)ethyl]piperazine dihydrochloride] gave an IC50 of 20 nM.
For the compound `Fc1ccc(SCCN2CCN(CCCC(c3ccc(F)cc3)c3ccc(F)cc3)CC2)cc1` [Example 3, 1-[4,4-bis(4-fluorophenyl)butyl]-4-[2-(4-fluorophenylthio)ethyl]piperazine dihydrochloride], the IC50 was 7 nM. Compared with the last compound, the IC50 is about 2.9-fold lower.
In the case of `O=[N+]([O-])c1ccc(SCCN2CCN(CCCC(c3ccc(F)cc3)c3ccc(F)cc3)CC2)cc1` [Example 4, 1-[4,4-bis(4-fluorophenyl)butyl]-4-[2-(4-nitrophenylthio)ethyl]piperazine dihydrochloride], the IC50 stood at 22 nM.
Compound `Fc1ccc(C(CCCN2CCN(CCSc3cccc(Cl)c3)CC2)c2ccc(F)cc2)cc1` [Example 5, 1-[4,4-bis(4-fluorophenyl)butyl]-4-[2-(3-chlorophenylthio)ethyl]piperazine dihydrochloride] came in with an IC50 of 1.2 nM. Against the preceding compound, the IC50 is about 18-fold lower.
The result for `Cc1cccc(C)c1NC(=O)CN1CCN(CCCC(c2ccc(F)cc2)c2ccc(F)cc2)CC1` [Lidoflazine, lidoflazine, reference compound] reads 430 nM.

As usually defined, the IC50 is the midpoint of a concentration-inhibition curve.
